pIC50: −log10 of the molar value.
Experiments:
[1] = target: T1, mouse TREX1 (Mus musculus, UniProt Q91XB0); assay: mTREX1 Biochemical Assay (fluorescence, dsDNA substrate degradation); settings: full length mouse TREX1, 4 h pre-incubation, 18 h reaction at 25° C.
T1 construct: N-terminally His-Tev tagged full length mouse TREX1; made in house; host or cells: E. coli
T1 sequence (Q91XB0 1-314): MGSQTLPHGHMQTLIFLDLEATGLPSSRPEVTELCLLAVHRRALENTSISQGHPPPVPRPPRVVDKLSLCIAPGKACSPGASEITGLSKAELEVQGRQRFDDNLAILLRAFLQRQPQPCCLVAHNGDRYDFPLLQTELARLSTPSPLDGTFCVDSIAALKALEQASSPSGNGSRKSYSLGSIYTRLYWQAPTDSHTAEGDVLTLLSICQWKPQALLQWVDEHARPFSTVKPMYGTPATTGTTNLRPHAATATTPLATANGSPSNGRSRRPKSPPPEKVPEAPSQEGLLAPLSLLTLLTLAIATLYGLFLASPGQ
How it was run: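 Full-length His-Tev mouse TREX1 (E. coli) was preincubated with compound 4 h at 25 °C, then run 18 h at 25 °C. Finals were 6 pM enzyme, 60 nM TEX615/quencher dsDNA, 1% DMSO, pH 7.4 Tris with 5 mM MgCl2. After EDTA quench, fluorescence was read at 615 nm; IC50 by four-parameter fit against EDTA and no-inhibitor controls.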

[2] = target: T2, human TREX2 (Homo sapiens, UniProt Q9BQ50); assay: hTREX2 Biochemical Assay (selectivity hTREX1 vs hTREX2); settings: biochemical selectivity for hTREX1 vs hTREX2
T2 construct: human TREX2 (residues M44-A279, expressed in E. coli); made in house; host or cells: E. coli
T2 sequence (Q9BQ50 44-279 isoform Q9BQ50-1): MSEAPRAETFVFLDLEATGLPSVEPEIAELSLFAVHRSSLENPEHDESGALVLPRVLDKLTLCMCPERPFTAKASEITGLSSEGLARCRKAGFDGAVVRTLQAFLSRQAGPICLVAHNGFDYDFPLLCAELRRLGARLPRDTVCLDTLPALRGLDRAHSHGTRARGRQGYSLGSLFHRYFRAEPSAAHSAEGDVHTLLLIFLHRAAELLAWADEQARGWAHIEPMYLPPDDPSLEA
How it was run: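 His-Tev-tagged human TREX2 (M44-A279, E. coli-expressed) preincubated with compound (10-point dose-response) for 4 h at 25 °C in Tris pH 7.4 buffer with 5 mM MgCl2. Reaction then run with 60 nM TEX615/quencher dsDNA and 50 pM enzyme (1% DMSO) for 18 h at 25 °C and EDTA-quenched. Fluorescence read at 615 nm (ex 570 nm); IC50 by four-parameter fit against pre-quenched and no-inhibitor controls.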

| Structure (SMILES) | pIC50 [1] | hTREX1 vs hTREX2 selectivity [2] |
| --- | --- | --- |
| C[C@H](c1nc(C(=O)Nc2cnoc2)c(O)c(=O)n1C)[C@H](c1ccccc1)c1ccccc1C(F)(F)F (single isomer, unassigned) [Example 14 Isomer 2, 5-Hydroxy-N-(isoxazol-4-yl)-1-methyl-6-oxo-2-(1-phenyl-1-(2-(trifluoromethyl)phenyl)propan-2-yl)-1,6-dihydropyrimidine-4-carboxamide] | < 8.00 | C (C = >50 fold selective for hTREX1) |
| CC(c1nc(C(=O)Nc2cnoc2)c(O)c(=O)n1C)C(c1ccccc1)c1ccccc1 (single isomer, unassigned) [Example 1 Isomer 2, 2-(1,1-diphenylpropan-2-yl)-5-hydroxy-N-(isoxazol-4-yl)-1-methyl-6-oxo-1,6-dihydro pyrimidine-4-carboxamide] | < 8.00 | A (A = <25 fold selective for hTREX1) |
| CC(c1nc(C(=O)Nc2cnoc2)c(O)c(=O)n1C)C(c1ccccc1Cl)c1ccccc1C#N (single isomer, unassigned) [Example 10 Isomer 1] | > 9.00 | C (C = >50 fold selective for hTREX1) |
| Cn1c([C@@H](C(c2ccccc2C#N)c2ccccc2C#N)C(F)(F)F)nc(C(=O)Nc2cnoc2)c(O)c1=O (single isomer, unassigned) [Example 21 Isomer 1, 2-(3,3-bis(2-cyanophenyl)-1,1,1-trifluoropropan-2-yl)-5-hydroxy-N-(isoxazol-4-yl)-1-methyl-6-oxo-1,6-dihydropyrimidine-4-carboxamide] | 8.00 to 9.00 | C (C = >50 fold selective for hTREX1) |
| CC(c1nc(C(=O)Nc2cnoc2)c(O)c(=O)n1C)C(c1ccccc1)c1ccc(Cl)cc1C#N (single isomer, unassigned) [Example 9 Isomer 4] | > 9.00 | B (B = 25 to 50 fold selective for hTREX1) |
| Cn1c([C@H](C(c2ccccc2)c2ccccc2)C(F)(F)F)nc(C(=O)Nc2cnoc2)c(O)c1=O (single isomer, unassigned) [Example 20 Isomer 1, 5-Hydroxy-N-(isoxazol-4-yl)-1-methyl-6-oxo-2-(1,1,1-trifluoro-3,3-diphenylpropan-2-yl)-1,6-dihydropyrimidine-4-carboxamide] | < 8.00 | A (A = <25 fold selective for hTREX1) |
| CC(c1nc(C(=O)Nc2cnoc2)c(O)c(=O)n1C)C(c1ccccc1)c1cc(C(=O)N(C)C)ccc1C#N (single isomer, unassigned) [Example 17 Isomer 3] | 8.00 to 9.00 | B (B = 25 to 50 fold selective for hTREX1) |
| CC(c1nc(C(=O)Nc2cnoc2)c(O)c(=O)n1C)C(c1ccccc1)c1cc(Cl)ccc1C#N (single isomer, unassigned) [Example 8 Isomer 2] | 8.00 to 9.00 | C (C = >50 fold selective for hTREX1) |
| CC(c1nc(C(=O)Nc2cnoc2)c(O)c(=O)n1C)C(c1ccccc1C#N)c1ccccc1C#N (single isomer, unassigned) [Example 4 Isomer 2] | > 9.00 | C (C = >50 fold selective for hTREX1) |
| CC(c1nc(C(=O)Nc2cnoc2)c(O)c(=O)n1C)C(c1ccccc1)c1ccccc1C#N (single isomer, unassigned) [Example 3 Isomer 4] | 8.00 to 9.00 | B (B = 25 to 50 fold selective for hTREX1) |
| C[C@H](c1nc(C(=O)Nc2cnoc2)c(O)c(=O)n1C)[C@H](c1ccccc1)c1ccccc1Cl (single isomer, unassigned) [Example 2 Isomer 3, 2-(1-(2-chlorophenyl)-1-phenylpropan-2-yl)-5-hydroxy-N-(isoxazol-4-yl)-1-methyl-6-oxo-1,6-dihydropyrimidine-4-carboxamide] | 8.00 to 9.00 | B (B = 25 to 50 fold selective for hTREX1) |
| CC(c1nc(C(=O)Nc2cnoc2)c(O)c(=O)n1C)C(c1cc(F)cc(F)c1)c1ccccc1C#N (single isomer, unassigned) [Example 11 Isomer 3] | > 9.00 | B (B = 25 to 50 fold selective for hTREX1) |
| CC(c1nc(C(=O)Nc2cnoc2)c(O)c(=O)n1C)C(c1ccccc1)c1cc(F)ccc1C#N (single isomer, unassigned) [Example 6 Isomer 4] | 8.00 to 9.00 | B (B = 25 to 50 fold selective for hTREX1) |

Now from value to compound:

| pIC50 [1] | hTREX1 vs hTREX2 selectivity [2] | Structure (SMILES) |
| --- | --- | --- |
| < 8.00 | A (A = <25 fold selective for hTREX1) | CC(c1nc(C(=O)Nc2cnoc2)c(O)c(=O)n1C)C(c1ccccc1)c1ccccc1 (single isomer, unassigned) [Example 1 Isomer 1, 2-(1,1-diphenylpropan-2-yl)-5-hydroxy-N-(isoxazol-4-yl)-1-methyl-6-oxo-1,6-dihydro pyrimidine-4-carboxamide] |
| > 9.00 | C (C = >50 fold selective for hTREX1) | C[C@H](c1nc(C(=O)Nc2cnoc2)c(O)c(=O)n1C)C(c1ccccc1Cl)c1ccccc1Cl (single isomer, unassigned) [Example 15 Isomer 1, 2-(1,1-bis(2-chlorophenyl)propan-2-yl)-5-hydroxy-N-(isooxazol-4-yl)-1-methyl-6-oxo-1,6-dihydropyrimidine-4-carboxamide] |

Source: patent publication US20240262814A1, “MODULATORS OF TREX1” (Constellation Pharmaceuticals, Inc., priority 2021, published 2024)
